Results on six compounds are retold here after article PMC8192900, “Label-free high-throughput screening assay for the identification of norepinephrine transporter (NET/SLC6A2) inhibitors” (Scientific Reports, 2021).

For assay [1], the system named is JumpIn-NET cells. The assay is described as follows: TRACT assay (xCELLigence impedance): substrate-induced cellular response, apparent substrate potency. The assay is classed as cell-based, human. The settings on record: for Decrease of apparent potency in dox-treated compared to vehicle-treated cells: +dox vs −dox JumpIn-NET cells; for EC50: Homo sapiens.
The subject of assay [2] is JumpIn-NET cells. The assay is described as follows: Effect of NET inhibitor alone on normalized Cell Index during 1 h pretreatment (xCELLigence). The assay is classed as cell-based, human. The settings on record: +dox JumpIn-NET cells; for Effect on nCI during pretreatment at highest tested concentration: 10 µM.
The mark [3] stands for this setting: doxycycline-treated (+dox) JumpIn-NET cells, 1 h pretreatment with 1 µM nisoxetine, read-out: Apparent potency pEC50 ± SEM (converted).
Setting [4] is: vehicle-treated (−dox) JumpIn-NET cells, no nisoxetine pretreatment, net AUC first 30 min, read-out: Apparent potency pEC50 ± SEM (converted).

Read-outs that look alike come from different tables or passages of the source.

In the case of `CNC[C@H](O)c1ccc(O)c(O)c1.O=C(O)C(O)C(O)C(=O)O` [EP, (−)-epinephrine (+)-bitartrate salt], in the assay with JumpIn-NET cells [1] (1 µM substrate (EC20), +dox cells, no inhibitor), the “Basal response in vehicle-pretreated cells, higher than that of NE” value was “approximately 60%”. For the same compound, the “Decrease of apparent potency in dox-treated compared to vehicle-treated cells” value (“Decrease of apparent potency” for short) in the assay with JumpIn-NET cells [1] is reported as “decreased tenfold”. Besides, the EC50 in the assay on JumpIn-NET cells [1] (read-out: Apparent potency pEC50 ± SEM, doxycycline-treated (+dox) JumpIn-NET cells, 1 h pretreatment with 1 µM nisoxetine (converted)) was 501 nM; in the assay with JumpIn-NET cells [1] (read-out: Apparent potency pEC50 ± SEM, doxycycline-treated (+dox) JumpIn-NET cells, no nisoxetine pretreatment (converted)) it was 3980 nM; with JumpIn-NET cells [1] (read-out: Apparent potency pEC50 ± SEM, vehicle-treated (−dox) JumpIn-NET cells, no nisoxetine pretreatment (converted), net AUC first 30 min), 398 nM.
Consider `NC[C@H](O)c1ccc(O)c(O)c1.O.O=C(O)C(O)C(O)C(=O)O` [NE, L-(−)-norepinephrine (+)-bitartrate salt monohydrate], for which the “Decrease of apparent potency” value in the assay with JumpIn-NET cells [1] is recorded as […]. Besides, the EC50 was […] in the assay with JumpIn-NET cells [1] (setting [3]); […] with JumpIn-NET cells [1] (doxycycline-treated (+dox) JumpIn-NET cells, no nisoxetine pretreatment, read-out: Apparent potency pEC50 ± SEM (converted)); […] with JumpIn-NET cells [1] (vehicle-treated (−dox) JumpIn-NET cells, 1 h pretreatment with 1 µM nisoxetine, read-out: Apparent potency pEC50 ± SEM (converted)); […] in the assay on JumpIn-NET cells [1] (setting [4]).
Regarding `CNCCC(Oc1ccccc1OC)c1ccccc1.Cl` (centres unmarked) [Nisoxetine, Nisoxetine hydrochloride], the “Effect on nCI during the 1 h pretreatment” value in the assay with JumpIn-NET cells [2] (1 µM) is “did not affect the nCI”. Moreover, the “Effect on nCI during pretreatment at highest tested concentration” value in the assay with JumpIn-NET cells [2] is “transient increase in nCI”.
Take `CNCC[C@@H](Oc1ccccc1C)c1ccccc1.Cl` [Atomoxetine, atomoxetine hydrochloride]: the “Effect on nCI during pretreatment at highest tested concentration” value with JumpIn-NET cells [2] is “transient increase in nCI”.
Same read-out and setting: under `CC(NC(C)(C)C)C(=O)c1cccc(Cl)c1.Cl` (centres unmarked) [Bupropion, bupropion hydrochloride] stands “transient increase in nCI”.
In the case of `Cl.NCCc1ccc(O)c(O)c1` [DA, dopamine hydrochloride], the “Decrease of apparent potency” value in the assay with JumpIn-NET cells [1] is “twofold lower”. The EC50 in the assay on JumpIn-NET cells [1] (setting [3]) is 39800 nM; in the assay with JumpIn-NET cells [1] (setting [4]) it was 7940 nM.
